In EP0782988A1, “INDOLE DERIVATIVES” (KYOWA HAKKO KOGYO CO., LTD., priority 1995, dated 1997):

System: ovariectomized rats
Assay: Inhibitory effect on the increase of urinary hydroxyproline excretion by ovariectomy (Test Example 1)
Assay type: in vivo, SD strain rats
Conditions: Rattus norvegicus, po, 336 h; ovariectomized female SD rats; test compound 10 mg/kg suspended in 0.3% Tween, orally once a day for two weeks; 24 h urine, hydroxyproline/creatinine molar ratio; versus ovariectomized control and sham-operated rats; read-out: Inhibition rate of increase of the amount of urinary hydroxyproline excretion
Method: The inhibitory effect of the compounds of the present application on bone resorption was determined by their inhibitory effect on the excretion of urinary hydroxyproline which is elevated by ovariectomy of the animals tested, according to the report of Kalu et al. [Bone and Mineral., 14, 175 (1991)].
Test Example 1: Inhibitory effect on the increase of urinary hydroxyproline excretion by ovariectomy
12-weeks-old female SD strain rats (Japan Clea Co., Ltd.) were acclimated for 1 week during which they were given tap water and a standard diet (F2; Funabashi Farmas) ad libitum. The experiment was carried out using the rats weighing 270-310 g. After the animals were subjected to sham operation or bilateral ovariectomy, they were allowed free access to water passed through ion exchange resin instead of tap water, and were housed in individual cages. The test compound (10 mg/kg) was suspended in 0.3% Tween, and the obtained suspension was orally administered to the ovariectomized rats once a day for two weeks starting from the day following ovariectomy (0.5 ml/100 g body weight). 0.3% Tween was similarly administered to sham-operated rats and ovariectomized control rats. After the final administration, the rats were placed in individual metabolic cages and fasted during 24 hours, and urine was collected. The volume of the collected urine was measured and the urine was centrifuged at 3,000 rpm for 15 min at 4°C. The concentration of hydroxyproline in the supernatant was measured by the method of Ikeda et al. [Ann. Rep. Tokyo Metr. Res. Lab. P. H., 36, 277-282 (1985)] and the concentration of creatinine in the supernatant was measured with creatinine test WAKO (Wako Pure Chem.) The amount of urinary hydroxyproline excretion was expressed by the molar ratio of the amount of hydroxyproline to the amount of creatinine. The rate of inhibition on increase of the amount of urinary hydroxyproline excretion in ovariectomized rats treated with the test compound compared to that of the control group was calculated using the following equation. Inhibition rate (%) = [(P1 - P2)/(P1 - P3)] x 100 [formula] • P1 : The amount of urinary hydroxyproline excretion in ovariectomized rats treated with 0.3% Tween (µmol/mmol). • P2 : The amount of urinary hydroxyproline excretion in ovariectomized rats treated with the test compound (µmol/mmol). • P3 : The amount of urinary hydroxyproline in sham-operated rats treated with 0.3% Tween (µmol/mmol).

Structure (SMILES)	inhibition in vivo at 10 mg/kg [%]
CN(C)CCN(C)C(=O)c1c(C(c2ccc(O)cc2)c2ccc(O)cc2)c2ccccc2n1CCN(C)C [Compound 22, N-(2-Dimethylaminoethyl)-N-methyl-3-[bis(4-hydroxyphenyl)methyl]-1-(2-dimethylaminoethyl)indole-2-carboxamide]	100
CN(C)CCn1c(C(=O)NCCN2CCCCC2)c(C(c2ccc(O)cc2)c2ccc(O)cc2)c2ccccc21 [Compound 25, N-(2-Piperidinoethyl)-3-[bis(4-hydroxyphenyl)methyl]-1-(2-dimethylaminoethyl)indole-2-carboxamide]	100
CN(C)CCn1c(C(=O)NCCCN2CCOCC2)c(C(c2ccc(O)cc2)c2ccc(O)cc2)c2ccccc21 [Compound 27, N-(3-Morpholinopropyl)-3-[bis(4-hydroxyphenyl)methyl]-1-(2-dimethylaminoethyl)indole-2-carboxamide]	30
CN(C)CCn1c(C(=O)NCc2cccnc2)c(C(c2ccc(O)cc2)c2ccc(O)cc2)c2ccccc21 [Compound 29, N-(3-Pyridylmethyl)-3-[bis(4-hydroxyphenyl)methyl]-1-(2-dimethylaminoethyl)indole-2-carboxamide]	30
CN(C)CCn1c(C(=O)NCc2ccncc2)c(C(c2ccc(O)cc2)c2ccc(O)cc2)c2ccccc21 [Compound 30, N-(4-Pyridylmethyl)-3-[bis(4-hydroxyphenyl)methyl]-1-(2-dimethylaminoethyl)indole-2-carboxamide]	100
CN(C)CCn1c(C(=O)NCCc2ccncc2)c(C(c2ccc(O)cc2)c2ccc(O)cc2)c2ccccc21 [Compound 32, N-[2-(4-Pyridyl)ethyl]-3-[bis(4-hydroxyphenyl)methyl]-1-(2-dimethylaminoethyl)indole-2-carboxamide]	100
CCN1CCCC1CNC(=O)c1c(C(c2ccc(O)cc2)c2ccc(O)cc2)c2ccccc2n1CCN(C)C (stereo not drawn) [Compound 33, N-[(1-Ethyl-2-pyrrolidinyl)methyl]-3-[bis(4-hydroxyphenyl)methyl]-1-(2-dimethylaminoethyl)indole-2-carboxamide]	100
CN(C)CCn1c(C(=O)NCCC2CCCN2C)c(C(c2ccc(O)cc2)c2ccc(O)cc2)c2ccccc21 (stereo not drawn) [Compound 34, N-[2-(1-Methyl-2-pyrrolidinyl)ethyl]-3-[bis(4-hydroxyphenyl)methyl]-1-(2-dimethylaminoethyl)indole-2-carboxamide]	100
CN(C)CCn1c(C(=O)NCC2CCCO2)c(C(c2ccc(O)cc2)c2ccc(O)cc2)c2ccccc21 (stereo not drawn) [Compound 37, N-(2-Tetrahydrofuranylmethyl)-3-[bis(4-hydroxyphenyl)methyl]-1-(2-dimethylaminoethyl)indole-2-carboxamide]	100
